Source: PubChem BioAssay (NCI)
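The compound was tested at five concentrations on cells cultured in 96-well plates, with a 48-hour exposure period. TGI is the concentration that stops growth completely.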

Legend:
Test in all cases: NCI tumour cell line growth inhibition, 48 h
786-0 renal = system: 786-0 renal
A498 renal = system: A498 renal
A549 NSCLC = system: A549 NSCLC
ACHN renal = system: ACHN renal
BT-549 breast = system: BT-549 breast
CAKI-1 renal = system: CAKI-1 renal
CCRF-CEM leukemia = system: CCRF-CEM leukemia
COLO 205 colon = system: COLO 205 colon
DU-145 prostate = system: DU-145 prostate
EKVX NSCLC = system: EKVX NSCLC
HCC-2998 colon = system: HCC-2998 colon
HCT-116 colon = system: HCT-116 colon
HCT-15 colon = system: HCT-15 colon
HL-60(TB) leukemia = system: HL-60(TB) leukemia
HOP-62 NSCLC = system: HOP-62 NSCLC
HOP-92 NSCLC = system: HOP-92 NSCLC
HS 578T breast = system: HS 578T breast
HT29 colon = system: HT29 colon
IGROV1 ovarian = system: IGROV1 ovarian
K-562 leukemia = system: K-562 leukemia
KM12 colon = system: KM12 colon
LOX IMVI melanoma = system: LOX IMVI melanoma
M14 melanoma = system: M14 melanoma
MALME-3M melanoma = system: MALME-3M melanoma
MCF7 breast = system: MCF7 breast
MDA-MB-231 breast = system: MDA-MB-231 breast
MDA-MB-435 = system: MDA-MB-435
MDA-N = system: MDA-N
MOLT-4 leukemia = system: MOLT-4 leukemia
NCI-H226 lung = system: NCI-H226 lung
NCI-H23 lung = system: NCI-H23 lung
NCI-H460 lung = system: NCI-H460 lung
NCI-H522 lung = system: NCI-H522 lung
NCI/ADR-RES ovarian = system: NCI/ADR-RES ovarian
OVCAR-3 ovarian = system: OVCAR-3 ovarian
OVCAR-4 ovarian = system: OVCAR-4 ovarian
OVCAR-5 ovarian = system: OVCAR-5 ovarian
OVCAR-8 ovarian = system: OVCAR-8 ovarian
PC-3 prostate = system: PC-3 prostate
RPMI-8226 leukemia = system: RPMI-8226 leukemia
RXF 393 renal = system: RXF 393 renal
SF-268 CNS = system: SF-268 CNS
SF-295 CNS = system: SF-295 CNS
SF-539 CNS = system: SF-539 CNS
SK-MEL-2 melanoma = system: SK-MEL-2 melanoma
SK-MEL-28 melanoma = system: SK-MEL-28 melanoma
SK-MEL-5 melanoma = system: SK-MEL-5 melanoma
SK-OV-3 ovarian = system: SK-OV-3 ovarian
SN12C renal = system: SN12C renal
SNB-19 CNS = system: SNB-19 CNS
SNB-75 CNS = system: SNB-75 CNS
SR leukemia = system: SR leukemia
SW-620 colon = system: SW-620 colon
T-47D breast = system: T-47D breast
TK-10 renal = system: TK-10 renal
U251 CNS = system: U251 CNS
UACC-62 melanoma = system: UACC-62 melanoma
UO-31 renal = system: UO-31 renal
UACC-257 melanoma = system: UACC-257 melanoma
DMS 114 small cell lung = system: DMS 114 small cell lung
DMS 273 small cell lung = system: DMS 273 small cell lung
KM20L2 colon = system: KM20L2 colon
M19-MEL melanoma = system: M19-MEL melanoma
SNB-78 CNS = system: SNB-78 CNS
DLD-1 colon = system: DLD-1 colon
LXFL 529 NSCLC = system: LXFL 529 NSCLC
HOP-18 NSCLC = system: HOP-18 NSCLC

Measured: TGI

Cn1cccc1-c1ccc(-c2ccc(CO)[se]2)[se]1
50.5 µM: KM12 colon
70.1 µM: DU-145 prostate
53.8 µM: OVCAR-4 ovarian
43.2 µM: RXF 393 renal
56.9 µM: SR leukemia
> 90 µM: NCI-H23 lung
18.9 µM: HL-60(TB) leukemia
> 46.7 µM: CCRF-CEM leukemia
44.5 µM: CAKI-1 renal
5.89 µM: NCI-H226 lung
50.1 µM: NCI-H522 lung
> 81 µM: NCI/ADR-RES ovarian
> 86.4 µM: COLO 205 colon
> 79.8 µM: MDA-MB-231 breast
> 83.7 µM: T-47D breast
> 88.1 µM: HOP-62 NSCLC
59.5 µM: SNB-75 CNS
18.7 µM: MDA-MB-435
> 68.4 µM: HCC-2998 colon
47.7 µM: RPMI-8226 leukemia
96.9 µM: UO-31 renal
> 78.5 µM: BT-549 breast
> 75 µM: SK-MEL-5 melanoma
> 40 µM: MCF7 breast
> 82.9 µM: SF-539 CNS
> 78.3 µM: SK-OV-3 ovarian
71.4 µM: MOLT-4 leukemia
> 70.6 µM: LOX IMVI melanoma
> 95.8 µM: SF-295 CNS
not listed: UACC-257 melanoma | DMS 114 small cell lung | DMS 273 small cell lung | KM20L2 colon | M19-MEL melanoma | SNB-78 CNS | DLD-1 colon | LXFL 529 NSCLC | HOP-18 NSCLC
> 100 µM: all other assays above

Nc1ccc(-c2nc3ccccc3s2)cc1Cl
98.3 µM: CCRF-CEM leukemia
72.8 µM: HOP-62 NSCLC
4.17 µM: A498 renal
> 94.2 µM: RXF 393 renal
> 93.5 µM: SNB-75 CNS
not listed: TK-10 renal | DMS 114 small cell lung | DMS 273 small cell lung | KM20L2 colon | M19-MEL melanoma | SNB-78 CNS | DLD-1 colon | LXFL 529 NSCLC | HOP-18 NSCLC
> 100 µM: all other assays above

NC(CCCC(N)P(=O)(O)O)C(=O)O (configuration not stated)
not listed: 786-0 renal | A549 NSCLC | BT-549 breast | CAKI-1 renal | COLO 205 colon | DU-145 prostate | HCC-2998 colon | HCT-15 colon | HS 578T breast | K-562 leukemia | LOX IMVI melanoma | MALME-3M melanoma | MCF7 breast | MDA-MB-231 breast | MDA-MB-435 | MDA-N | NCI/ADR-RES ovarian | OVCAR-3 ovarian | OVCAR-4 ovarian | PC-3 prostate | RPMI-8226 leukemia | SF-539 CNS | SK-MEL-2 melanoma | SK-MEL-5 melanoma | SN12C renal | SNB-75 CNS | SW-620 colon | T-47D breast | DLD-1 colon | LXFL 529 NSCLC | HOP-18 NSCLC
> 100 µM: all other assays above

C=CCn1c(=S)sc2c(C(=O)OCC)c3c(C)cc(C)cn3c2c1=O
not listed: A498 renal | BT-549 breast | DU-145 prostate | HOP-92 NSCLC | HS 578T breast | KM12 colon | MCF7 breast | MDA-MB-231 breast | MDA-MB-435 | MDA-N | NCI/ADR-RES ovarian | OVCAR-4 ovarian | PC-3 prostate | T-47D breast | DMS 114 small cell lung | HOP-18 NSCLC
> 100 µM: all other assays above

Cc1ccc(S(=O)(=O)N/N=C(\c2nc3ccc(Cl)cc3[nH]c2=O)C(O)c2ccco2)cc1 (configuration not stated)
not listed: BT-549 breast | DU-145 prostate | HOP-62 NSCLC | HS 578T breast | MCF7 breast | MDA-MB-231 breast | MDA-MB-435 | MDA-N | NCI-H522 lung | NCI/ADR-RES ovarian | OVCAR-8 ovarian | PC-3 prostate | RPMI-8226 leukemia | SK-OV-3 ovarian | SN12C renal | SR leukemia | T-47D breast | U251 CNS | UO-31 renal | SNB-78 CNS
> 100 µM: all other assays above

CCCCc1ccc(Nc2ncc3ncn(COCCO)c3n2)cc1
83.7 µM: HS 578T breast
73.1 µM: SK-MEL-2 melanoma
65.3 µM: SNB-75 CNS
53.1 µM: MOLT-4 leukemia
90.9 µM: OVCAR-3 ovarian
49.6 µM: SK-MEL-5 melanoma
57.4 µM: MDA-MB-231 breast
72.5 µM: UACC-257 melanoma
77.7 µM: UACC-62 melanoma
99.1 µM: KM12 colon
86.6 µM: RXF 393 renal
87.5 µM: MDA-MB-435
60.6 µM: CCRF-CEM leukemia
68.4 µM: MALME-3M melanoma
92.8 µM: HOP-92 NSCLC
65.4 µM: HCT-116 colon
39.7 µM: LOX IMVI melanoma
88.7 µM: EKVX NSCLC
80.1 µM: SF-295 CNS
59.1 µM: UO-31 renal
40.7 µM: HCC-2998 colon
52.7 µM: K-562 leukemia
53 µM: M14 melanoma
50 µM: HL-60(TB) leukemia | HT29 colon | RPMI-8226 leukemia
52.5 µM: SR leukemia
57.9 µM: NCI-H460 lung
not listed: SK-MEL-28 melanoma | DMS 114 small cell lung | DMS 273 small cell lung | KM20L2 colon | M19-MEL melanoma | SNB-78 CNS | DLD-1 colon | LXFL 529 NSCLC | HOP-18 NSCLC
> 100 µM: all other assays above

Cc1c(C(=O)c2ccc(N)c3ccccc23)c2ccccc2n1CCN1CCOCC1
> 91.5 µM: NCI/ADR-RES ovarian
49.1 µM: KM12 colon
48.5 µM: SF-295 CNS
86.9 µM: COLO 205 colon
58.5 µM: UACC-257 melanoma
47.4 µM: SNB-75 CNS
99.1 µM: A549 NSCLC
37 µM: MDA-MB-435
75.6 µM: HOP-92 NSCLC
58.1 µM: HL-60(TB) leukemia
40.6 µM: UACC-62 melanoma
> 94.5 µM: OVCAR-8 ovarian
41.3 µM: OVCAR-3 ovarian
63.7 µM: M14 melanoma
> 90.6 µM: K-562 leukemia
48.4 µM: HS 578T breast
> 82.2 µM: TK-10 renal
> 47.8 µM: OVCAR-4 ovarian
> 77.1 µM: NCI-H460 lung
48.6 µM: HCT-116 colon
> 90.1 µM: HOP-62 NSCLC
> 95.2 µM: DU-145 prostate
86.6 µM: UO-31 renal
50.8 µM: SF-539 CNS
> 88.5 µM: SF-268 CNS
> 89.6 µM: IGROV1 ovarian
> 95.6 µM: U251 CNS
80.6 µM: 786-0 renal
55 µM: MDA-N
47.2 µM: SK-MEL-2 melanoma
59 µM: LOX IMVI melanoma
59.9 µM: HCC-2998 colon
58.4 µM: NCI-H522 lung
67.7 µM: RXF 393 renal
80.1 µM: BT-549 breast
> 61.1 µM: RPMI-8226 leukemia
70.9 µM: MCF7 breast
> 67.7 µM: MOLT-4 leukemia
> 85.3 µM: SR leukemia
> 92.2 µM: EKVX NSCLC
61.8 µM: MALME-3M melanoma
72.5 µM: HT29 colon
> 94.1 µM: SN12C renal
33.7 µM: SK-MEL-5 melanoma
81.8 µM: A498 renal
98.2 µM: OVCAR-5 ovarian
> 95.7 µM: HCT-15 colon
not listed: DMS 114 small cell lung | DMS 273 small cell lung | KM20L2 colon | M19-MEL melanoma | SNB-78 CNS | DLD-1 colon | LXFL 529 NSCLC | HOP-18 NSCLC
> 100 µM: all other assays above
